This is an account of results in paper PMC4081560 (PLoS ONE, 2014).

Values joined by “and” are separate entries in the source; they are usually repeats but may differ in a detail not shown here. Identical values can stand only once. Like-named read-outs stand apart in the source and are kept apart here. Marks after values point to notes of the source that are not given here.

Common to all, as to parameters: species or system DBA/2 mice
Details in all cases: mouse, in vivo

The subject of test [1] is oseltamivir-resistant K/2785 virus.
Test [2] shares this test system. The source holds these as a separate data set.
Test [3] has the same test system. The source holds these as a separate data set.

Take `NC(=O)c1nc(F)cnc1O` [Favipiravir, 6-fluoro-3-hydroxy-2-pyrazinecarboxamide]: in test [1], the “MDD ± SD” value was 10.6 ± 0.9 days and 10.7 ± 0.6 days and 9.4 ± 0.5 days; the Survival/total is 5/10 (50.0%)* and 8/10 (80.0%)*** and 3/10 (30.0%); the “Synergism (MacSynergy II)” value was found to be 0%. Also, in test [2], the “MDD ± SD (mean day of death prior to 14 dpi)” value was 9.8 ± 0.8 days and 10.0 ± 0.0 days and 11 days; the Survival/total is 2/7 (28.6%) and 4/7 (57.1%) and 6/7 (85.7%)** and 7/7 (100.0%)***; the “infected mice saved from death” value is reported as “more than 80%”. The “Viral titers in lungs ± SD” value in test [3] was 6.95±0.14 log10(PFU/ml/g) and 5.75±0.19 log10(PFU/ml/g) and 7.31±0.01 log10(PFU/ml/g) and 6.88±0.12 log10(PFU/ml/g).
`CCC(CC)[C@H](NC(C)=O)[C@@H]1[C@H](O)[C@@H](C(=O)O)C[C@H]1N=C(N)N` [Peramivir]: in test [1], the “MDD ± SD” value was 9.8 ± 1.5 days and 10.1 ± 1.2 days and 10.6 ± 0.9 days; the Survival/total was 0/10 (00.0%) and 2/10 (20.0%) and 5/10 (50.0%)*; the “Synergism (MacSynergy II)” value was 0%. In addition, in test [2], the “MDD ± SD (mean day of death prior to 14 dpi)” value was 10.1 ± 1.1 days and 10.2 ± 0.4 days and 10.5 ± 2.1 days and 11.0 ± 1.4 days; the Survival/total was 0/7 (0.0%) and 1/7 (14.3%) and 5/7 (71.4%)*. Moreover, the “Viral titers in lungs ± SD” value in test [3] was 7.34±0.17 log10(PFU/ml/g) and 6.30±0.13 log10(PFU/ml/g) and 7.13±0.09 log10(PFU/ml/g) and 6.29±0.27 log10(PFU/ml/g) and 7.29±0.15 log10(PFU/ml/g) and 6.55±0.14 log10(PFU/ml/g).
